Laboratory results from patent US20250195498A1, “INHIBITOR OF CELLULAR PURINE NUCLEOTIDE SALVAGE PATHWAY ENZYME FOR USE IN THE TREATMENT AND/OR PREVENTION OF HELICOBACTER PYLORI INFECTION AND/OR DISEASE ASSOCIATED WITH SUCH INFECTION AND PHARMACEUTICAL COMPOSITION COMPRISING THE SAME” (UNIWERSYTET WARSZAWSKI, priority 2022, published 2025).
Where two headings read alike, the source gives them in different places.

Tests used:
[1] = target: T1, PNP from H. pylori strain 26695 (Helicobacter pylori, UniProt P56463); test: Inhibition of PNP from H. pylori, spectrophotometric phosphorolysis assay; assay type: biochemical; conditions: formycins; kinetic methods of Example 1; read-out: inhibition constant
T1 construct: made in house; host or cells: E. coli
Description: The specific activity of PNP is usually determined using inosine as a substrate, in an assay in which the phosphorolysis product, hypoxanthine, is oxidized to uric acid in a reaction catalysed by xanthine oxidase. However, in the inhibition assay of PNP from H. pylori strain 26695, 7-methylguanosine (m^7Guo) and guanosine (Guo) were used as nucleoside substrates to avoid potential inhibition of xanthine oxidase by the test compounds. Phosphorolysis of these two substrates can be observed using a direct spectrophotometric method in a known manner.
Enzymatic activity was studied in a quartz cuvette with an optical path length of 1 cm or 0.5 cm. The absorbance of the reaction mixture, at the observation wavelength, never exceeded 1.2. The reaction volume was 1 ml or 1.4 ml in cuvettes with optical path lengths of 1 cm and 0.5 cm, respectively. The reaction mixture contained 50 mM Hepes/NaOH buffer, pH 7.0, 50 mM phosphate buffer, pH 7.0 (unless otherwise indicated), nucleoside substrate and inhibitor (with the latter not added to the reference/control reactions). Reactions were usually initiated by adding the enzyme to a cuvette containing the other reaction components. However, in cases where possible slow formation of an inhibitor-enzyme complex was checked, a second variant was also used involving incubation of the enzyme in a reaction mixture containing the inhibitor but lacking the substrate, 7-methylguanosine, and initiation of the reaction by adding this substrate.
In order to determine the inhibition constants and determine the molecular mechanism of inhibition, equations describing different mechanisms of inhibition were fitted to the obtained experimental data. GraphPad Prism 8 program was used. The model best describing the obtained data was selected based on the sum of squares of deviations using the F test for models with different number of parameters and the Akaike criterion (AIC) for models with the same number of parameters.
The following equations were used to describe competitive inhibition, characterized by the inhibition constant Kic, [1], uncompetitive, characterized by the inhibition constant Kiu, [2], non-competitive, characterized by the inhibition constant Kin, [3], and mixed, characterized by the inhibition constants Kiu and Kic, [4] (Segel, 1993):
The last equation can also be represented in the following form, as used by GraphPad Prism software, where Kiu=alpha Kic:
Immucillin A was chosen as the most promising one for potential pharmacological use in combating H. pylori infection because immucillin A has an amino substituent at position 6 of the 9-dazapurine ring, while PNP found in the human body requires a substituent at this position having electron-pairs-hydrogen bond acceptors, such as a substituent in the form of a keto group, to strongly bind the ligand. According to the invention, it is therefore believed that immucillin A will not interact with the host PNP, and thus allow selective inhibition of the PNP from H. pylori. Using the methods described above, the effect of immucillin A on the rate of the 7-methylguanosine (m^7Guo) phosphorolysis reaction catalysed by PNP from H. pylori was examined (FIG. 1). Since it is known (Schramm, 2018) that immucillins form a strongly bound complex with the enzyme relatively slowly, reactions were initiated by adding the substrate, m^7Guo, to a cuvette in which the enzyme was incubated with the inhibitor, as described in Example 1.
Data analysis was also performed as described in this Example. The range of substrate concentrations tested was 10-200 μM or 10-280 μM (shown in FIG. 4), and the range of inhibitor concentrations was chosen according to the observed degree of inhibition of the reaction, in order to obtain a significant degree of inhibition that allows determination of the inhibition mechanism and determination of inhibition constants (see FIG. 4). […]

H. pylori strain 26695 = test: Growth curve method / MIC in liquid culture, strain 26695; assay type: cell-based, Helicobacter pylori; conditions: 2.5 mM; strain not stated, method of Example 3
Protocol: The representative PNP inhibitor from H. pylori included in this study was immucillin A. The experiment was conducted using the growth curve method (two-fold serial dilutions in liquid medium). The tested H. pylori strains were cultured in Petri dishes with BHI solid medium supplemented with 10% FBS and 1% H. pylori Selective Supplement antibiotic kit, in anaerostats under microaerophilic conditions (5% 02, 10% CO2, 85% N2) at 37° C. for 3 days. Liquid culture of H. pylori was conducted overnight with shaking at 37° C. under microaerophilic conditions in BHI medium supplemented with 10% FBS and 1% H. pylori Selective Supplement antibiotic kit. Subsequently, for the essential experiment of determining the minimum inhibitory concentration (MIC), double strengthened liquid BHI medium was prepared, that is, supplemented with 20% FBS and a 2% set of H. pylori Selective Supplement antibiotics.
Bacterial proliferation inhibition experiments were carried out in 24-deep-well 2 ml flat-bottomed plates at a solution volume per well of 0.5 ml. In a single well, double strengthened (relative to the concentration planned for testing) solutions of the test inhibitor and double strengthened liquid BHI medium inoculated with H. pylori (10^4-10^5 CFU/ml in the final volume in the well, corresponding to the optical density of the culture OD600=0.05) were mixed together in a 1:1 ratio.
Kanamycin at a concentration of 25 μg/ml (Irie et al., 1997) was used as a positive control, while Mili-Q deionized water and BHI medium not inoculated with bacteria were used as negative controls. Plates were shaken at 37° C., under microaerophilic conditions. […] After 24 hours, the OD600 of samples containing the negative control, i.e. with Mili-Q deionized water, was about 1.2-1.4, corresponding to a bacterial concentration of about […].
In addition, the method proposed by Knezevic et al. (2018) was used to check whether the observed OD600 was from live bacterial cells. For this purpose, an equal volume of Christensen's double strength urea broth (that is, containing twice the concentration of all components) was added to the wells after incubation, and the plates were additionally incubated for 4 hours in an oxygen atmosphere at 37° C. During incubation, in wells with urease produced by live bacteria, urea is converted to ammonia and carbon dioxide, changing the pH of the solution and thus the colour of the phenol red indicator contained in the medium (from orange to purple).
All experiments were performed in triplicate.
The experiments were carried out using the growth curve method as described in Example 3, and the results obtained for two of the compounds tested are shown in FIG. 5. As the water solubility of the compounds tested, with the exception of 2,6-diCl-Pu, is relatively poor, two experiments were carried out: the first with the maximum concentration possible under the experimental conditions in aqueous solution with a small admixture of DMSO, and the second with higher concentrations that led to partial precipitation of the compound.
The antibacterial activity of two compounds, mefloquine (in the form of hydrochloride) and quinine, described in the literature as potent in vitro inhibitors of the PNP enzyme from Plasmodium falciparum (Dziekan et al., 2019), was tested. Using a two-fold serial dilution method in liquid medium (as described in Example 3), the MIC values for mefloquine and quinine were determined against clinical H. pylori strains resistant to MTZ, CLR and MTZ+CLR (M26, M91, M92 and M93), as well as the reference H. pylori strain 26695. Four clinical H. pylori strains isolated from adults, from primary infections (the subjects had never previously been treated against H. pylori infection) were tested. These strains come from the collection of the Department of Microbiology of the Medical University of Wroclaw and were obtained due to collaboration with Prof. Grażyna Gościniak, MD, PhD. […]

[2] = target: T1, PNP from H. pylori strain 26695; conditions: formycins; Wojtyś et al., 2021; read-out: inhibition constant; cited from earlier work
PNP from E. coli [3] = target: T2, PNP from E. coli (Escherichia coli, UniProt P0ABP8); conditions: read-out: inhibition constant; cited from earlier work
human PNP = target: T3, human PNP (Homo sapiens, UniProt P00491); conditions: Bzowska et al., 2000; cited from earlier work
T3 sequence (P00491 1-289): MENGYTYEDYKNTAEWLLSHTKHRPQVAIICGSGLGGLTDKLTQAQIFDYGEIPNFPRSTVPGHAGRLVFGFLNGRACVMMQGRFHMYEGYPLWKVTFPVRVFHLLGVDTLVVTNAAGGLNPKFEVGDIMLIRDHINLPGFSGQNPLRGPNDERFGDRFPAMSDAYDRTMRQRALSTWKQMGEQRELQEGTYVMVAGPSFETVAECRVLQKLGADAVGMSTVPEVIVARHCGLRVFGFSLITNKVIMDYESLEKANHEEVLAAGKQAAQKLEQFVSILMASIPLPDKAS

PNP from E. coli [4] = target: T2, PNP from E. coli; test: Inhibition of PNP from E. coli; assay type: biochemical; conditions: previous work of the inventors

T2 sequence (P0ABP8 2-239): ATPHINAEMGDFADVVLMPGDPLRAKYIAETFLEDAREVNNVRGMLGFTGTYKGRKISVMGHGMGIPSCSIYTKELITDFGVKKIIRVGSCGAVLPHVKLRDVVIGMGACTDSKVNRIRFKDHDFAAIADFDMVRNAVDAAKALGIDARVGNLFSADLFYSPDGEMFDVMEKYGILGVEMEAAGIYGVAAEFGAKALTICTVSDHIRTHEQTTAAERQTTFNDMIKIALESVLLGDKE
T1 sequence (P56463 whole entry): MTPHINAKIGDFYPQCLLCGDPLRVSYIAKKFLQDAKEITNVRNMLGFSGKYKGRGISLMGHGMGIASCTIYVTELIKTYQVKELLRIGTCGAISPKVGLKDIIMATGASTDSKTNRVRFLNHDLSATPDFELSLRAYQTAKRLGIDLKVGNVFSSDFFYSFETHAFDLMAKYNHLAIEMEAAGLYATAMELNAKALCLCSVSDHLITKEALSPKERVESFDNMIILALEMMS

SMILES | Ki [1] [µM] | inhibition of H. pylori growth (% of the growth observed without the inhibitor) (H. pylori strain 26695) | Ki [2] [µM] | Ki (PNP from E. coli [3]) [µM] | inhibition of human PNP (human PNP) | stronger inhibition than formycin A (PNP from E. coli [4]) [fold]
Nc1ncnc2c([C@@H]3O[C@H](CO)[C@@H](O)[C@H]3O)[nH]nc12 [formycin A] | 14 | 50% | 14 | ~5 | not an inhibitor | –
O=c1[nH]cnc2c([C@@H]3O[C@H](CO)[C@@H](O)[C@H]3O)n[nH]c12 [formycin B] | 1 | very weak inhibition | 1 | ~5 | very weak inhibitor | –
Cn1cnc2c([C@@H]3O[C@H](CO)C(O)[C@@H]3O)nnc-2c1N (some centres unmarked) [6-methylformycin A] | – | – | – | – | – | 10
